Data reported in patent publication US20240358721A1, “GASDERMIN-D INHIBITORS AND USES THEREOF FOR TREATING PULMONARY VASO-OCCLUSION” (UNIVERSITY OF PITTSBURGH-OF THE COMMONWEALTH SYSTEM OF …, priority 2021, published 2024).
Entries after “also recorded” stand apart in the source; their conditions may differ.

System: SCD-Selp−/− mice
Assay: qFILM assessment of P-selectin-independent pulmonary vaso-occlusion in SCD-Selp−/− mice IV administered oxy-Hb
Assay type: in vivo, mouse
Settings: IV 10 μmole/kg oxy-Hb with 10 mg/kg inhibitor vs oxy-Hb alone, 10 mg/kg
Description: Quantitative fluorescence intravital lung microscopy (qFILM) was used to assess the absence or presence of platelet-neutrophil aggregate mediated pulmonary vaso-occlusion. Pulmonary microcirculation (pseudo-colored purple), neutrophils (red) and platelets (pseudo-colored green) were labeled in vivo by IV administration of FITC dextran, AF546-anti-Ly6G Ab and V450-anti-CD49b Ab, respectively. […] White arrows denote the direction of blood flow within the pulmonary arterioles. Alveoli are marked with asterisks. Scale bars 20 μm. The diameter of pulmonary arteriole in B-E is ˜22 μm, 32 μm, 31.5 μm, and 31 μm, respectively. […] Refer Online Data Supplement for details. […] The data for mice with SCD IV administered 10 oxy-Hb (n=5 mice; 75 FOVs) are included as black bars in FIGS. 1N and 1O for relative comparison. qFILM FOV size ˜65 536 μm^2. Data represent mean ±SE and are compared using Student t test. *P<0.05 (FIG. 1P) Schematic showing the main findings of the study. The sterile inflammatory milieu (DAMPs, IFN-I signaling, and ROS) in SCD promotes caspase-4 (humans) or caspase-11 (mouse)-dependent cleavage of neutrophil GSDMD into the active form GSDMD-NT, leading to the shedding of NETs in the liver microcirculation. Once shed, these NETs are carried by the blood as cNETs to the lung, where they promote neutrophil-platelet aggregation in the pulmonary arterioles, leading to PVO and lung injury (acute chest syndrome).
SCD-Selp^−/− mice were IV administered 10 μmole/kg oxy-Hb (10 oxy-Hb) without or with 10 mg/kg GSDMD inhibitor (Disulfiram). Quantitative fluorescence intravital lung microscopy (qFILM) was used to assess the absence or presence of pulmonary vasoocclusion using the same experimental scheme described in FIG. 1A. Pulmonary vasoocclusions (PVOs) were compared between treatment groups using following two parameters: Number of PVOs per Field of View (#PVOs/FOV) and number of large PVOs (with area>1000 μm^2) per FOV. […] The data for SCD mice IV administered 10 oxy-Hb (n=5 mice; 75 FOVs) is included as black bars in FIGS. 4A and 4B for relative comparison. FOV size˜65,536 μm^2. […]
(FIG. 5A) Experimental scheme: SCD or SCD-Selp^−/− mice were IV administered 10 μmole/kg oxy-Hb (10 oxy-Hb) without or with 10 mg/kg GSDMD inhibitors LDC75591 or Disulfiram. In FIGS. 5C-5D, venous blood was processed to generate PPP and cNETs detected in PPP using Imaging Flow Cytometry. Imaging Flow Cytometry data was quantified to estimate concentration of cNETs (#cNETs/μl of plasma). In FIGS. 5B, and 5E-5F, quantitative fluorescence intravital lung microscopy (qFILM) was used to detect arrival of circulating NETs (cNETs) within the lung microcirculation. Number of cNETs entering per FOV over a 1-minute duration (#cNETs/FOV/min) were quantified. […]

COc1ccccc1-c1cc2n(n1)Cc1ccc(NC(C)=O)cc1OC2 [LDC7559]
Number of PVOs per Field of View (#PVOs/FOV): significantly reduced; also recorded: threefold | number of large PVOs (with area>1000 μm^2) per FOV: absent; also recorded: absence
